# Laboratory results: BindingDB's records for doi:10.1021/acs.jmedchem.8b00435 (Shanghaitech University, 2018)
# Experiment: Agonist activity at adenosine A3 receptor (unknown origin) expressed in serum starved CHO cells assessed as increase in cell survival after 24 hrs by propidium iodide staining-based assay
row,Structure (SMILES),EC50
1,CNC(=O)[C@@]12C[C@@H]1[C@@H](n1cnc3c(NCc4cccc(Cl)c4)nc(C#Cc4ccccc4)nc31)[C@H](O)[C@@H]2O,0.2 nM
2,CNC(=O)[C@@]12C[C@@H]1[C@@H](n1cnc3c(NCc4cccc(Cl)c4)nc(C#Cc4ccc5ccc6cccc7ccc4c5c67)nc31)[C@H](O)[C@@H]2O,13 nM
3,CNC(=O)[C@@]12C[C@@H]1[C@@H](n1cnc3c(NCc4cccc(Cl)c4)nc(C#Cc4cc5cccc6ccc7cccc4c7c65)nc31)[C@H](O)[C@@H]2O,20 nM
4,CNC(=O)[C@@]12C[C@@H]1[C@@H](n1cnc3c(NCc4cccc(Cl)c4)nc(C#Cc4ccc(-c5ccccc5)cc4)nc31)[C@H](O)[C@@H]2O,0.251 nM
